Measurements as given in the NIST ThermoML archive (doi:10.1021/je800908h).

Test: mn = molality of the nth substance listed, in mol/kg
Settings: 101 kPa, Liquid, Linear variable-path acoustic interferometer

[2H]O[2H] [water-d2] + CCCC[N+](CCCC)(CCCC)CCCC.[Br-]
speed of sound [m/s]
Settings | 283.15 K | 298.15 K | 318.15 K | 338.15 K
m2 = 0.05 | 1366.8 | 1414 | 1451.5 | –
m2 = 0.075 | 1375.9 | 1421.1 | 1456.5 | 1470.5
m2 = 0.1 | 1384.4 | – | 1461.4 | 1474.3
m2 = 0.2 | 1419.1 | 1453.9 | 1479.9 | 1486.6
m2 = 0.3 | 1450.2 | 1478.2 | – | 1498.1
m2 = 0.5 | 1506 | – | 1525.8 | 1518.2
m2 = 0.75 | 1562.5 | 1562.4 | 1554.8 | 1536.6
m2 = 1 | 1605.4 | 1594.2 | 1576.2 | 1550.2
m2 = 1.5 | 1658.6 | 1634.9 | 1601 | 1563.5
m2 = 2 | 1680.5 | 1652.1 | 1610 | 1566.4
m2 = 2.5 | 1686.3 | 1657 | 1611.3 | 1563.7
m2 = 3 | 1688.9 | 1661.4 | 1615.2 | 1564

[2H]O[2H] [water-d2] + C[N+](C)(C)C.[Br-]
speed of sound [m/s]
Settings | 283.15 K | 298.15 K | 318.15 K | 338.15 K
m2 = 0.05 | 1352 | 1403 | 1443.9 | 1462.3
m2 = 0.075 | 1354.7 | 1405.2 | 1445.4 | 1463.6
m2 = 0.1 | 1357.5 | 1407.4 | 1447.1 | 1465.1
m2 = 0.2 | 1366.7 | 1414.7 | 1452.9 | 1469.8
m2 = 0.3 | 1376.5 | 1422.2 | 1458.6 | 1474.5
m2 = 0.5 | 1393.7 | 1436.4 | 1469.8 | 1484.1
m2 = 0.75 | 1414.4 | 1453.8 | 1483.7 | 1495.7
m2 = 1 | 1433.4 | 1470.2 | – | 1506.9
m2 = 1.5 | 1469.8 | 1500.5 | 1521.2 | 1527.4
m2 = 2 | 1502.4 | 1528 | 1543.6 | 1546.4
m2 = 2.5 | 1532.1 | 1552.9 | 1564.3 | 1564.2
m2 = 3 | 1560.4 | 1575.5 | 1583.5 | 1580.8
